Data on eight compounds can be found in patent US12421217B2, “Pyrazine derivative or salt thereof, and use of same” (FUJIFILM Corporation, priority 2019, dated 2025).

One assay addresses T1, recombinant human DHODH (Homo sapiens, UniProt Q02127).
T1 construct: DHODH, 31-395 aa, Human, His tag, E. coli, ATGP1615; His tag; purchased ATGen Co. Ltd. ATGP1615; host or cells: E. coli
The assay is described as follows: Enzyme reaction inhibition test (DHODH enzyme assay, DCIP quenching). Type of assay: biochemical. The following applies: DCIP absorbance 600 nm, 50 minutes, read-out: Enzyme reaction inhibitory effect (IC50). As for the experimental part: The DHODH enzyme assay was carried out with reference to “Benjamin Bader, Wolfgang Knecht, Markus Fries, and Monika Loffler. Expression, Purification, and Characterization of Histidine-Tagged Rat and Human Flavoenzyme Dihydroorotate Dehydrogenase. Protein Expression and Purification, 1998, 13, 414-422.”
The DHODH activity was evaluated using an enzyme assay system that is coupled with an assay in which a blue coloring agent 2,6-dichlorophenol indophenol (DCIP, available from MP Biomedicals, LLC, MP150118) is quenched. Purified recombinant human DHODH (DHODH, 31-395 aa, Human, His tag, E. coli, ATGP1615) was purchased from ATGen Co. Ltd. The enzyme assay was carried out in a 384-well plate using a buffer solution containing 100 mmol/L Hepes (available from Dojindo Laboratories, 342-01375), 400 mmol/L NaCl (available from FUJIFILM Wako Pure Chemical Corporation, 191-01665), 10% Glycerol (available from FUJIFILM Wako Pure Chemical Corporation, 075-00616), 0.05% Triton X-100 (available from Sigma-Aldrich Co., LLC, T8787-100ML), 0.2 mmol/L Ubiquinone-10 (available from FUJIFILM Wako Pure Chemical Corporation, 216-00761), 0.1 mmol/L DHO (L-dihydroorotic acid, available from Sigma-Aldrich Co., LLC, D7128), 0.5% DMSO (dimethylsulfoxide, available from FUJIFILM Wako Pure Chemical Corporation, 047-29353), 0.175 μg/mL DHODH, and 0.12 mmol/L DCIP and having a pH adjusted to 8.0 by adding 5 mol/L potassium hydroxide (available from FUJIFILM Wako Pure Chemical Corporation, 168-21815). A test compound with a predetermined concentration was added using Biomek NX (available from Beckman Coulter Inc.), and the enzymatic reaction was started by adding the substrate. The enzyme activity was assessed by measuring the decrease in DCIP absorbance (600 nm) for 50 minutes using an EnVision plate-reading spectrophotometer (available from PerkinElmer, Inc.).
The enzyme reaction inhibition rate at each test compound concentration was determined, and the 50% enzyme reaction inhibition concentration [IC50 (nmol/L)] was calculated using XLfit. Enzyme reaction inhibition rate (%)=(amount of luminescence in test compound-added well)/(amount of luminescence in DMSO-added well)×100
The abbreviations in the table have the following meanings. • A: IC50 value<10 nmol/L • B: 10 nmol/L≤IC50 value<100 nmol/L • C: 100 nmol/L≤IC50 value

In assay [1] the test system is human myeloid leukemia cell line HL60. The assay is described as follows: Cell growth test (Cell Titer Glo). Type of assay: cell-based. The following applies: HL-60, 72 h, HL60 cells, 3 days, read-out: Cell growth inhibitory effect (GI50). As for the experimental part: The cell growth test was carried out using the human myeloid leukemia cell line HL60 (available from ATCC, CRL-240). As a culture medium of HL60 cells, RPMI 1640 (available from FUJIFILM Wako Pure Chemical Corporation, 189-02025) supplemented with 10% fetal bovine serum (available from Thermo Fisher Scientific, Inc., 10437-028), and 1% penicillin-streptomycin (10,000 U/mL, available from Thermo Fisher Scientific, Inc., 15140-122) was used. HL60 cells were seeded on a 384-well plate (available from Corning Inc., 4588) at a cell density of 1×10^3 cells/20 μL/well. After culturing overnight, 5 μL of the test compound having a predetermined concentration was added, and 3 days later, 25 μL of Cell Titer Glo (registered trademark) Luminescent Cell Viability Assay (available from Promega Corporation, G7573) was added, and then the amount of luminescence was measured using an EnVision plate reader (available from PerkinElmer, Inc.). Since the amount of luminescence is proportional to the intracellular concentration of adenosine triphosphate (ATP), the amount of luminescence was used as an indicator of the number of viable cells. The growth inhibitory concentration for each test compound concentration was calculated by the following expression.
The growth inhibition rate at each test compound concentration was determined, and the 50% growth inhibitory concentration [GI50 (nmol/L)] was calculated using XLfit. Growth inhibition rate (%)=(amount of luminescence in test compound-added well)/(amount of luminescence in DMSO-added well)×100
The abbreviations in the table have the following meanings. • A: GI50 value<100 nmol/L • B: 100 nmol/L≤GI50 value<1,000 nmol/L • C: 1,000 nmol/L≤GI50 value
On the technique in general: ATP-based viability assays read luminescence as a measure of living cells.

Assay [2] has as its system human acute myeloid leukemia cell line HL60. The assay is described as follows: In vivo drug efficacy test in cancer-bearing mouse model with subcutaneous transplantation of HL60. Particulars: NOD/scid mice, oral 10 to 30 mg/kg once daily for 10 days. The protocol: (Drug Efficacy Test in Cancer-Bearing Mouse Model with Subcutaneous Transplantation of HL60)
The human acute myeloid leukemia cell line HL60 (available from JCRB) was suspended in a mixture of RPMI-1640 medium and Matrigel (available from Corning Inc.), and then subcutaneously transplanted into 6-week-old female NOD/scid mice (available from CLEA Japan, Inc.). After confirming that the average tumor volume exceeded 200 mm^3, the test compound was dissolved in a solvent (1 equivalent sodium hydroxide solution) and orally administered to mice at a dose of 10 to 30 mg/kg once daily for 10 days. As a negative control, a solvent-administered group to which a 10 to 12 mmol/L sodium hydroxide solution was administered was provided. The tumor diameter was measured over time and the tumor volume was calculated. The tumor volume was calculated by measuring the major axis and the minor axis of the tumor and using the following expression. Tumor volume (mm^3)=[major axis (mm)×minor axis (mm)×minor axis (mm)]/2
T/C (%) was calculated from the average tumor volume of each group by the following expression, and the drug efficacy was evaluated. T/C (%)=(average tumor volume of drug-administered group)/(average tumor volume of solvent-administered group)×100%

Some results are limits rather than exact numbers.

T1 sequence (Q02127 31-395): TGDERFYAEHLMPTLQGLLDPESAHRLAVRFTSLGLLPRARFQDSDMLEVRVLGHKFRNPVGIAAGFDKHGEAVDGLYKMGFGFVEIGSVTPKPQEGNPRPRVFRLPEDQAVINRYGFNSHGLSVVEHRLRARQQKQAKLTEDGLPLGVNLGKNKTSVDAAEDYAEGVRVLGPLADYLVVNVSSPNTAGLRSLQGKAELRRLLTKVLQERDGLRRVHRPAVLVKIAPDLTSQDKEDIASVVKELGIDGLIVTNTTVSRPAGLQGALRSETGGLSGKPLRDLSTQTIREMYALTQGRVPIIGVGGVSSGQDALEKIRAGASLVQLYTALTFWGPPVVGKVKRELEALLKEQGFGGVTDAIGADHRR

Turning to `O=C(O)c1nc(C2CC2)cnc1Nc1cccc(C2=CCOCC2)c1OCC(F)(F)F` [Example 2, 6-cyclopropyl-3-((3-(3,6-dihydro-2H-pyran-4-yl)-2-(2,2,2-trifluoroethoxy)phenyl)amino)pyrazine-2-carboxylic acid], the IC50 (commonly the concentration that gives 50% inhibition) at recombinant human DHODH was under 10 nM. In assay [1], the concentration for 50% growth inhibition (GI50) (usually the concentration giving 50% growth inhibition) is under 100 nM. For the same compound, the “tumor growth inhibition rate (T/C)” value in assay [2] is listed as “excellent tumor growth inhibition rate”.
For `O=C(O)c1nc(C2CC2)cnc1Nc1cccc(C2CCOCC2)c1OCC(F)(F)F` [Example 4, 6-cyclopropyl-3-((3-(tetrahydro-2H-pyran-4-yl)-2-(2,2,2-trifluoroethoxy)phenyl)amino)pyrazine-2-carboxylic acid], in that order: under 10 nM, under 100 nM and “excellent tumor growth inhibition rate”.
As for `CCCc1c(Nc2ncc(C3CC3)nc2C(=O)O)cccc1C1CCOCC1` [Example 13, 6-cyclopropyl-3-((2-propyl-3-(tetrahydro-2H-pyran-4-yl)phenyl)amino)pyrazine-2-carboxylic acid], the IC50 at recombinant human DHODH lay in the range of 10 to 100 nM. Further, the 50% growth inhibitory concentration (GI50) in assay [1] was under 100 nM. In addition, the “tumor growth inhibition rate (T/C)” value in assay [2] is given as “excellent tumor growth inhibition rate”.
For the compound `C[C@H](Oc1c(Nc2ncc(C3CC3)nc2C(=O)O)cccc1C1CCOCC1)C(F)(F)F` [Example 10, (S)-6-cyclopropyl-3-((3-(tetrahydro-2H-pyran-4-yl)-2-((1,1,1-trifluoropropan-2-yl)oxy)phenyl)amino)pyrazine-2-carboxylic acid], the IC50 on recombinant human DHODH was under 10 nM. The GI50 in assay [1] was under 100 nM. Besides, in assay [2], the “tumor growth inhibition rate (T/C)” value is recorded as “excellent tumor growth inhibition rate”.
On the same counts, the results for `C[C@H](Oc1c(Nc2ncc(C3CC3)nc2C(=O)O)cccc1C1=CCOCC1)C(F)(F)F` [Example 8, (S)-6-cyclopropyl-3-((3-(3,6-dihydro-2H-pyran-4-yl)-2-((1,1,1-trifluoropropan-2-yl)oxy)phenyl)amino)pyrazine-2-carboxylic acid] are under 10 nM, under 100 nM and “excellent tumor growth inhibition rate”.
With `O=C(O)c1nc(C2CC2)cnc1Nc1cc(F)cc(C2CCOCC2)c1OC(F)F` [Example 11, 6-cyclopropyl-3-((2-(difluoromethoxy)-5-fluoro-3-(tetrahydro-2H-pyran-4-yl)phenyl)amino)pyrazine-2-carboxylic acid], the IC50 at recombinant human DHODH was under 10 nM. Also, in assay [1], the GI50 was under 100 nM.
For `O=C(O)c1nc(C2CC2)cnc1Nc1cc(F)cc(C2CCOCC2)c1OCC(F)(F)F` [Example 6, 6-cyclopropyl-3-((5-fluoro-3-(tetrahydro-2H-pyran-4-yl)-2-(2,2,2-trifluoroethoxy)phenyl)amino) pyrazine-2-carboxylic acid], in that order: under 10 nM and under 100 nM.
On to `CC(C)OC(=O)c1nc(C2CC2)cnc1Nc1cccc(C2=CCOCC2)c1OCC(F)(F)F` [Example 21, isopropyl 6-cyclopropyl-3-((3-(3,6-dihydro-2H-pyran-4-yl)-2-(2,2,2-trifluoroethoxy)phenyl)amino)pyrazine-2-carboxylate], for which the IC50 at recombinant human DHODH is at least 100 nM. Moreover, the GI50 in assay [1] was at least 1000 nM.
